Where two headings read alike, the source gives them in different places.
Key:
[1] = target: T1, SOCE (ICRAC) reconstituted by STIM1 and Orail (CRACM1) (Homo sapiens, UniProt Q96D31); test: ICRAC whole cell patch clamp in HEK293 cells forcibly expressing STIM1 and Orail (CRACM1); assay type: cell-based; conditions: inward current at −80 mV
T1 construct: expressed in transfected cells; host or cells: HEK293 cells
From the text: FIG. 2 is a drawing showing an Icrac inhibitory effect of 163AE, and the vertical axis and the horizontal axis show the same as in FIG. 1.
The effects of 162AE (bis(3,3′-(phenylaminoethoxyboryl)benzyl)ether described in Example 8) and 163AE (bis(4,4′-(phenylaminoethoxyboryl)benzyl)ether described in Example 131) for ICRAC, whose molecular entity as one of SOCE has been clarified, were investigated using an electrophysiological method. STIM1 and Orail (CRACM1) were forcibly expressed in HEK293 cells, and whole cell records were taken by the Patch clamp technique. BAPTA (20 mM), which is a calcium chelator, and IP3 (20 μM) that depletes intracellular calcium store were added to a recording electrode internal solution (120 mM Cs-glutamate, 10 mM HEPES, 3 mM MgCl2), 10 mM calcium was added to an extracellular solution to facilitate observation of calcium electric current, and a ramp command from −150 mV to +150 mV was input at 0.5 Hz to obtain a current-voltage curve. For quantification of SOCE, the size of the inward current at −80 mV was used as an index. After the start of the whole cell recording, time was taken to sufficiently activate SOCE (ICRAC), and compounds 162AE and 163AE as inhibitors were administered to the cells. […]

transglutaminase (TGase) = test: Measurement of TG (TGase inhibitory activity, monodansyl cadaverine / N,N-dimethylcasein fluorescence, FDSS 3000); assay type: biochemical
Procedure, shortened: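 Compound (1 μL of 10 mM stock) added to 0.1 mL reaction: 100 mM HEPES-NaOH pH 7.5, 1 mM CaCl2, 20 μM monodansyl cadaverine, 0.05 mg/mL N,N-dimethylcasein, 5 μg/mL TGase. Rate of fluorescence change at 340 nm measured; DMSO control set to 100; TG50 is the concentration halving activity.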

[2] = tested on: Truncated N-terminal huntington 150 Q-EGFP-Neuron 2a cells; test: Measurement of x-Fold (polyglutamine aggregation inhibitory activity); assay type: cell-based
Procedure: In the present invention, the polyglutamine aggregation inhibitory activity (x-Fold) can be measured, for example, by the method described in the Example.
The number of the aggregated cells, and the total number of cells were counted by Array Scan V T1 (manufactured by Cellomics, Pittuburg, USA), and the ratio of the aggregated cells to the total number of cells was determined (x-Fold). […]

[3] = tested on: SOC (store operated calcium channel); test: Measurement of SOC IC50 (thapsigargin store depletion, calcium re-addition, CHO cells); assay type: cell-based; conditions: read-out: SOC IC50
Procedure: The SOC (store operated calcium channel)-suppressive action can be measured by the method described in the Example and using, for example, FDSS 3000.
CHO cell culture medium was replaced with a BSS solution which is an extracellular fluidfree of calcium, the compound of the present invention was added 1 min later, and 1 μM thapsigargin was allowed to act thereon 2 min later to deplete intracellular calcium store. […]

[4] = TGase activity with compound (10 mM, 1 μL in 0.1 ml enzyme reaction solution), DMSO control taken as 100
[5] = TGase inhibitory activity value, Table 1
[6] = polyglutamine aggregation inhibitory activity, Table 1
[7] = ratio of aggregated cells to total number of cells, compound 20 μM, 20 hr, almost 1 without compound, smaller = stronger inhibition
[8] = CHO cells, 1 μM thapsigargin, 2 mM calcium chloride
[9] = Cricetulus griseus, CHO, CHO cells, 1 μM thapsigargin, 2 mM calcium chloride
[10] = TGase inhibitory activity measurement, unit not given
[11] = polyglutamine aggregation, Truncated N-terminal huntington 150 Q-EGFP-Neuron 2a cells

T1 sequence (Q96D31 whole entry): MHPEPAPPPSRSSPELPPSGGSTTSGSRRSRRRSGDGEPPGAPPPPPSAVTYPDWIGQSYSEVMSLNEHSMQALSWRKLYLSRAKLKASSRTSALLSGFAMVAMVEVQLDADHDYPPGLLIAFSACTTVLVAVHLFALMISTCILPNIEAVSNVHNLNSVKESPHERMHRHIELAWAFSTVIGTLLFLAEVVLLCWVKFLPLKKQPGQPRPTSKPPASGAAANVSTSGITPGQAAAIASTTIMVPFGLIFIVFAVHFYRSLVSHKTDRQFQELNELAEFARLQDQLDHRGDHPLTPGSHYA

Compound | TGase activity remaining (% of DMSO control = 100) (transglutaminase (TGase); [4]) | x-Fold [2, 7] | IC50 [3, 8] [nM] | TGase activity remaining (% of DMSO control = 100) (transglutaminase (TGase); [10]) | x-Fold [2, 11] | further results
NCCOB(c1ccccc1)c1cccc(COCc2cccc(B(OCCN)c3ccccc3)c2)c1 [Example 8, bis(3,3′-(phenylaminoethoxyboryl)benzyl)ether] | 24 | 1.1 | 200 |  |  | IC50 [1]: 86 nM; TGase activity remaining (% of DMSO control = 100) (transglutaminase (TGase); [5]): 24; x-Fold [2, 6]: 1.1
NCCOB(c1ccccc1)c1ccc(COCc2ccc(B(OCCN)c3ccccc3)cc2)cc1 [Example 131, bis((4,4′-phenylaminoethoxyboryl)benzyl)ether] |  | 1.1 |  |  |  | IC50 [1]: 170 nM; x-Fold [2, 6]: 1.1; IC50 [3, 9]: 300 nM; IC50 ([3]; Cricetulus griseus, CHO, Table 1): 300 nM
c1ccc(B(OCc2ccccn2)c2cccc(COCc3cccc(B(OCc4ccccn4)c4ccccc4)c3)c2)cc1 [Example 467, bis(3,3′-(phenyl-2-pyridylmethoxyboryl)benzyl)ether] | 60 | 0.98 | 250 | 60 | 0.98 | 
NCC(OB(c1ccccc1)c1cccc(COCc2cccc(B(OC(CN)c3ccccc3)c3ccccc3)c2)c1)c1ccccc1 (centres unmarked) [Example 468, bis(3,3′-(phenyl-2-amino-1-phenylethoxyboryl)benzyl)ether] | 35 | 0.98 | 300 | 35 | 0.98 | 
CNCCOB(c1ccccc1)c1cccc(COCc2cccc(B(OCCNC)c3ccccc3)c2)c1 [Example 469, bis(3,3′-(phenyl-N-methylaminoethoxyboryl)benzyl)ether] | 15 | 0.94 | 250 | 15 | 0.94 | 
CC(CNCCN)OB(c1ccccc1)c1cccc(COCc2cccc(B(OC(C)CNCCN)c3ccccc3)c2)c1 (centres unmarked) [Example 470, bis(3,3′-(phenyl-N-aminoethyl-1-methyl-2-aminoethoxyboryl)benzyl)ether] | 19 | 1.02 | 300 | 19 | 1.02 | 
NC(=O)CCC(N)C(=O)OB(c1ccccc1)c1cccc(COCc2cccc(B(OC(=O)C(N)CCC(N)=O)c3ccccc3)c2)c1 (centres unmarked) [Example 471, bis(3,3′-(phenyl-glutamineboryl)benzyl)ether] | 52 | 1.04 | 600 | 52 | 1.04 | 
NCCC(N)C(=O)OB(c1ccccc1)c1cccc(COCc2cccc(B(OC(=O)C(N)CCN)c3ccccc3)c2)c1 (centres unmarked) [Example 472, bis(3,3′-(phenyl-2,4-diaminobutyric acid boryl)benzyl)ether] | 47 | 0.95 | 1000 | 47 | 0.95 | 
CCCCNCCOB(c1ccccc1)c1cccc(COCc2cccc(B(OCCNCCCC)c3ccccc3)c2)c1 [Example 473, bis(3,3′-(phenyl-N-butylaminoethoxyboryl)benzyl)ether] |  | 0.96 | 500 | −4 | 0.96 | 
NC(=O)CC(N)C(=O)OB(c1ccccc1)c1cccc(COCc2cccc(B(OC(=O)C(N)CC(N)=O)c3ccccc3)c2)c1 (centres unmarked) [Example 474, bis(3,3′-(phenyl-asparagineboryl)benzyl)ether] | 145 | 1.04 | 500 |  |  | TGase activity remaining (% of DMSO control = 100) (transglutaminase (TGase); TGase inhibitory activity measurement, unit not given, listed as 3031): 145; x-Fold ([2]; polyglutamine aggregation, Truncated N-terminal huntington 150 Q-EGFP-Neuron 2a cells, listed as 3031): 1.04
NCCCCC(N)C(=O)OB(c1ccccc1)c1cccc(COCc2cccc(B(OC(=O)C(N)CCCCN)c3ccccc3)c2)c1 (centres unmarked) [Example 475, bis(3,3′-(phenyl-lysineboryl)benzyl)ether] | 21 | 1.01 | 600 | 21 | 1.01 | 
NCCCC(N)C(=O)OB(c1ccccc1)c1cccc(COCc2cccc(B(OC(=O)C(N)CCCN)c3ccccc3)c2)c1 (centres unmarked) [Example 476, bis(3,3′-(phenyl-ornithineboryl)benzyl)ether] | 103 | 0.95 | 1500 | 103 | 0.95 | 
NC(COB(c1ccccc1)c1ccc(COCc2ccc(B(OCC(N)Cc3ccccc3)c3ccccc3)cc2)cc1)Cc1ccccc1 (centres unmarked) [Example 479, bis(4,4′-(phenyl-2-benzyl-2-amino-ethoxyboryl)benzyl)ether] | 54 | 1.00 | 1500 | 54 | 1.00 | 
NC(COB(c1ccccc1)c1ccc(Oc2ccc(B(OCC(N)Cc3ccccc3)c3ccccc3)cc2)cc1)Cc1ccccc1 (centres unmarked) [Example 480, bis(4,4′-(phenyl-2-benzyl-2-amino-ethoxyboryl)phenyl)ether] | 59 | 0.66 | 1500 | 59 | 0.66 | 
OB(c1ccccc1)c1ccccc1COCc1ccccc1B(O)c1ccccc1 [Example 486, bis(2,2′-(phenylhydroxyboryl)benzyl)ether] | 52 | 1.04 | 500 |  |  | 
NCCOB(c1ccccc1)c1ccccc1 [Example 487, 2-aminoethyl diphenylborinate] | 90 | 0.64 |  |  |  | IC50 ([3]; Cricetulus griseus, CHO): 3000 nM
OB(c1ccccc1)c1ccccc1 [Example 488, diphenylborinic acid] | 108 | 1.01 |  | 108 | 1.01 | x-Fold [2, 6]: 0.83; IC50 [3, 9]: 4000 nM; IC50 ([3]; Cricetulus griseus, CHO, CHO cells, thapsigargin store depletion): 4000 nM
bis(3,3′-(phenyl-2-benzyl-2-amino-ethoxyboryl)benzyl)ether [Example 481] | 48 | 0.80 | 1500 | 48 | 0.80 | 
bis(3-chloro-4-methylphenyl 2-pyridylmethoxyborylphenyl)ether [Example 117] | 108 | 0.06 | 1500 |  |  | 
bis(4,4′-(phenylaminoethoxyboryl)phenyl)ether [Example 5] | −4 | 0.60 | 150 |  |  | TGase activity remaining (% of DMSO control = 100) (transglutaminase (TGase); [5]): −4; x-Fold [2, 6]: 0.60
diphenyl(tyrosinate-O,N)borane [Example 264] | 109 | 1.00 | 5000 |  |  | TGase activity remaining (% of DMSO control = 100) (transglutaminase (TGase); [5]): 109; x-Fold [2, 6]: 1.00
